Tests used:
[1] = target: T1, Thrombin receptor (PAR-1) (Homo sapiens, UniProt P25116); assay: Thrombin receptor (PAR-1) binding assay; details: CHRF membranes; tritiated 721-40 radioligand; read-out: IC50 (μM) Thr recptr Bdg
T1 construct: CHRF membranes (Jones, Biochim. Biophys. Acta 1992, 1136, 272) are thawed from −70° C; endogenous in cells; host or cells: CHRF cell membranes
T1 sequence (P25116 22-425): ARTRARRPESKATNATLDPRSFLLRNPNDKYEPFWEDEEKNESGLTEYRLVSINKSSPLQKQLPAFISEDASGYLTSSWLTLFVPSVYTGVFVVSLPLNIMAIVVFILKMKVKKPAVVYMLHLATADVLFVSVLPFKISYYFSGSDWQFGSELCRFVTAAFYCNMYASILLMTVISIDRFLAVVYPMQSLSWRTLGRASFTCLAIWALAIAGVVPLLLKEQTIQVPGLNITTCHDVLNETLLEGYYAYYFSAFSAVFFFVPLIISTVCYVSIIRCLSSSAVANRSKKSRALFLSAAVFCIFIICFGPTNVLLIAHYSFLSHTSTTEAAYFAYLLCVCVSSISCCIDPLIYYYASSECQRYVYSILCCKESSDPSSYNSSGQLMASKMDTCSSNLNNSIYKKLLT
Method: In Vitro Thrombin Receptor Binding Assay
CHRF membranes (Jones, Biochim. Biophys. Acta 1992, 1136, 272) are thawed from −70° C., centrifuged at maximum speed for 5 min, washed twice with binding buffer (50 mM HEPES containing 5 mM MgCl2 and 0.1% BSA), and re-suspended in binding buffer ([…]). 100 μL of membranes are added to the 24-Wallac plates and delivered to the Tomtech apparatus. In a typical experiment, 6 μL of samples (from a 125 μg/mL intermediary plate, 20% DMSO) and 44 μL buffer are delivered to the plates (final conc. of compounds is 3.7 μg/mL, 0.6% DMSO). Similarly, 6 μL 20% DMSO and 44 μL buffer are delivered to both column 1 (NSB) and column 12 (TB). 10 μL Ser-pFPhe-Har-Leu-Har-Lys-Tyr-NH2, SEQ ID NO 1, (721-40; 500 μM in deionized water) is added to column 1. 50 μL tritiated 721-40 (specific activity 46 Ci/mmol) is added to all the wells. The plates are mixed well for 20 seconds, incubated for 30 min, and then harvested with 10 mM HEPES/138 mM NaCl using the Skatron harvester. The filters (GF/C Brandel FPXLR 296) are presoaked 3 h in 0.5% polyethylenimine in HEPES/0.1M N-acetylglucosamine) are set in saran wrap and dried for 3 min in the microwave, and placed in sample bags (Wallac 1450-432). 4.5 mL scintillation fluid (Wallac, Betaplate Scint 1205-440) is added. The bags are sealed, placed in filter cassettes (Wallac 1450-104), and analyzed on the microbeta counter.

[2] = system: gel-filtered platelets (thrombin-stimulated aggregation); assay: Thrombin-induced gel-filtered platelet aggregation assay; format: cell-based; details: human platelets, read-out: IC50 (μM) Thr GFP Aggr
Method: In Vitro Inhibition of Thrombin-Induced Gel-Filtered Platelet Aggregation Assay
The percentage of platelet aggregation is calculated as an increase in light transmission of compound-treated platelet concentrate vs. control-treated platelet concentrate. Human blood is obtained from drug free, normal donors in tubes containing 0.13M sodium citrate. Platelet rich plasma (PRP) is collected by centrifugation of whole blood at 200×g for 10 min at 25° C. The PRP (5 mL) is gel filtered through Sepharose 2B (bed volume 50 mL), and the platelet count is adjusted to 2×10^7 platelets per sample. The following constituents are added to a siliconized cuvette: concentrated platelet filtrate and Tyrode's buffer (0.14M NaCl, 0.0027M KCl, 0.012M NaHCO3, 0.76 mM Na2HPO4, 0.0055M glucose, 2 mg/mL BSA and 5.0 mM HEPES @ pH 7.4) in an amount equal to 350 μL, 50 μL of 20 mM calcium and 50 μL of the test compound. Aggregation is monitored in a BIODATA aggregometer for the 3 min following the addition of agonist (thrombin 50 μL of 1 unit/mL).

Compound	IC50 [1] [µM]	IC50 [2] [µM]
NCC[C@H](NC(=O)[C@H](Cc1ccc(F)c(F)c1)NC(=O)Nc1ccc2c(c1)n(Cc1c(Cl)cccc1Cl)c(=O)n2CCN1CCCC1)C(=O)NCc1ccccc1 [Compound 1]	1.6	0.39
Cc1ccccc1Cn1c(=O)n(CCN2CCCC2)c2cc(NC(=O)N[C@@H](Cc3ccc(F)c(F)c3)C(=O)N[C@@H](CCN)C(=O)NCc3ccccc3)ccc21 [Compound 2]	3	7
Cc1ccccc1Cn1c(=O)n(CCN(C)C)c2cc(NC(=O)N[C@@H](Cc3ccc(F)c(F)c3)C(=O)N[C@@H](CCN)C(=O)NCc3ccccc3)ccc21 [Compound 3]	1.9	7.7
Cc1ccccc1Cn1c(=O)n(CCN(C)C)c2ccc(NC(=O)N[C@@H](Cc3ccc(F)c(F)c3)C(=O)N[C@@H](CCN)C(=O)NCc3ccccc3)cc21 [Compound 4]	0.7	0.23
Cc1ccccc1Cn1c(=O)n(CCN2CCCC2)c2ccc(NC(=O)N[C@@H](Cc3ccc(F)c(F)c3)C(=O)N[C@@H](CCN)C(=O)NCc3ccccc3)cc21 [Compound 5]	0.4	0.28
NCC[C@H](NC(=O)[C@H](Cc1ccc(F)c(F)c1)NC(=O)Nc1ccc2c(c1)n(Cc1ccc(F)cc1)c(=O)n2CCN1CCCC1)C(=O)NCc1ccccc1 [Compound 6]	0.6	6
NCC[C@H](NC(=O)[C@H](Cc1ccc(F)c(F)c1)NC(=O)Nc1ccc2c(c1)n(CCN1CCCC1)c(=O)n2Cc1c(Cl)cccc1Cl)C(=O)NCc1ccccc1 [Compound 7]	1.7	5.5
NCCNC(=O)[C@H](Cc1ccncc1)NC(=O)[C@H](Cc1ccc(F)c(F)c1)NC(=O)Nc1ccc2c(c1)n(Cc1ccc(F)cc1)c(=O)n2CCN1CCCC1 [Compound 8]	0.5	5.8

— patent US6943149B2, “Benzimidazolone peptidomimetics as thrombin receptor antagonists” (Ortho McNeil Pharmaceutical, Inc., priority 1999, dated 2005)
